Source: ChEMBL document CHEMBL5113384, “Small-molecule inhibitors targeting small ubiquitin-like modifier pathway for the treatment of cancers and other diseases” (Eur J Med Chem, 2022)
One block for each compound: values may come before it.

Assays:
[1] = Inhibition of His-tagged SUMO1/SUMO E1 /GST-tagged Aos1/Uba2/His-tagged Ubc9 (unknown origin)-mediated recombinant His/T7-tagged RanGAP1-C-terminal fragment SUMOylation assessed as change in chemical shift perturbation by 1H,15N HSQC NMR spectroscopy analysis; set-up: species or system Homo sapiens
[2] = Inhibition of His-tagged SUMO1/SUMO E1 /His-tagged Ubc9 (unknown origin)-mediated SUMOylation using FL-AR as substrate incubated for 90 mins in presence of ATP by Western blot analysis; set-up: species or system Homo sapiens
[3] = (§1) Inhibition of His-tagged SUMO1/GST-tagged Aos1/Uba2/His-tagged Ubc9 (unknown origin)-mediated recombinant His/T7-tagged RanGAP1-C-terminal fragment SUMOylation expressed in Escherichia coli BL21 (DE3) assessed as reduction in Ubc9-SUMO level in presence of ATP by SDS-PAGE based immunoblotting analysis; set-up: species or system Homo sapiens
[4] = Inhibition of His-tagged SUMO/SAE /Ubc9 (unknown origin)-mediated recombinant 6His-tagged RanGAP1 SUMOylation in presence of ATP by HTRF analysis; set-up: species or system Homo sapiens
[5] = Inhibition of SUMO E1 (unknown origin); set-up: species or system Homo sapiens
[6] = Inhibition of Plasmodium falciparum SENP1 using QTGG-AFC as substrate by fluorescence based analysis
[7] = Inhibition of His-tagged SUMO1/SUMO E1 /GST-tagged Aos1/Uba2/His-tagged Ubc9 (unknown origin)-mediated recombinant His/T7-tagged RanGAP1-C2-terminal fragment SUMOylation in presence of ATP by SDS-PAGE based immunoblotting analysis; set-up: species or system Homo sapiens
[8] = as §1, with “SUMO1/SUMO E1 /GST-tagged” for “SUMO1/GST-tagged”, “level measured upto 2 hrs” for “level”, “fluorescence polarization” for “SDS-PAGE based immunoblotting”; set-up: species or system Homo sapiens
NEDD8 activating enzyme = target: T1, NEDD8 activating enzyme (Homo sapiens, UniProt Q8TBC4); assay: Inhibition of NAE (unknown origin); assay type: protein-complex assay
T1 sequence (Q8TBC4 whole entry): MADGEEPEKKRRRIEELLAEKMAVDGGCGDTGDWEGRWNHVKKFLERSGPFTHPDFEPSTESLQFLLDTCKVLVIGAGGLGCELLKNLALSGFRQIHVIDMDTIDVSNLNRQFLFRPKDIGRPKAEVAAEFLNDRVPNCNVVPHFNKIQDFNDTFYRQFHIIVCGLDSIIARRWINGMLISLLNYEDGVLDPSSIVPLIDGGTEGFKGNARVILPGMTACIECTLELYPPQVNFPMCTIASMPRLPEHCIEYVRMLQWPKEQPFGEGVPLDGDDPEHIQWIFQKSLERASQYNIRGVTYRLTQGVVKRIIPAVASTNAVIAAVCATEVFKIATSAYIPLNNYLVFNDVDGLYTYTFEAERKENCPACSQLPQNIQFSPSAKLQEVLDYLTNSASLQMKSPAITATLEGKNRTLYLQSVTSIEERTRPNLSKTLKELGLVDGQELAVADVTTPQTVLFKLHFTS
T1 sequence (Q13564 whole entry): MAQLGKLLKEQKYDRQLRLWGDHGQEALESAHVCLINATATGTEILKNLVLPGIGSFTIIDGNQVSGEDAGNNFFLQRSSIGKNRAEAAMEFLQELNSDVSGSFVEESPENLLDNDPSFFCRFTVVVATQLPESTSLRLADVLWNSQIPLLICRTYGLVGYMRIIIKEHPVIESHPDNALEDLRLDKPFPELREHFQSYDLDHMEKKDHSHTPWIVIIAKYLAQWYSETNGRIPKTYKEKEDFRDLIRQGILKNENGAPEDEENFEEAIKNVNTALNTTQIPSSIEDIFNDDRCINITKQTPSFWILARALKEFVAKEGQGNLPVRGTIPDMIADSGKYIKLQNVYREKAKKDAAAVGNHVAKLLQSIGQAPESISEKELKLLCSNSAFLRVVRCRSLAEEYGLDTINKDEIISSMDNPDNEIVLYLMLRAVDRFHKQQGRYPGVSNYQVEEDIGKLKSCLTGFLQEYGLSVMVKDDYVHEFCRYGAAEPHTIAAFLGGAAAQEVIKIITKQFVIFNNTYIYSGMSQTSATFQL

[9] = Inhibition of UAE (unknown origin); set-up: species or system Homo sapiens
[10] = Inhibition of His-tagged SUMO1/SUMO E1 /His-tagged Ubc9 (unknown origin)-mediated […] SUMOylation using FL-AR as substrate incubated for 90 mins in presence of ATP by peptide microarray-based fluorescence assay; set-up: species or system Homo sapiens
LNCaP = assay: Antiproliferative activity against androgen-sensitive human LNCaP cells assessed as cell growth inhibition incubated for 48 hrs by MTT assay; assay type: functional, cell-based
PC-3 = assay: Antiproliferative activity against human PC-3 cells assessed as cell growth inhibition incubated for 48 hrs by MTT assay; assay type: functional, cell-based; details: PC-3, 48 h

IC50 [3]: 11.7 µM
SMILES: C[C@@H]1O[C@@H](O[C@@H]2C[C@H](c3ccc4c(c3O)C(=O)C3=C(C4=O)[C@@]4(O[C@H]5CC[C@H](O)[C@H](C)O5)C(=O)C[C@](C)(O)C[C@@]4(O)C=C3)O[C@H](C)[C@H]2O)CC[C@@H]1O[C@H]1C[C@@H](O)[C@H](O)[C@@H](C)O1

IC50 [5]: 8.2 µM
SMILES: NS(=O)(=O)OC[C@@H]1C[C@@H](n2ccc3c(NC4CCc5ccccc54)ncnc32)C[C@@H]1O (stereo partly drawn)

IC50 [1]: 3000 µM
SMILES: CCOC(=O)CCc1ccc(-c2ccccc2O)c(O)c1

IC50 [7]: 4.4 µM
SMILES: CO/C(=C/C(=O)O)[C@H]1c2cc3ccc(-c4ccc5cc6c(c(O)c5c4O)C(=O)C[C@@](C)(O)[C@H]6/C(=C\C(=O)O)OC)c(O)c3c(O)c2C(=O)C[C@@]1(C)O

IC50 [8]: 12.5 µM
SMILES: COc1ccc(NC(=O)[C@H](CCCN)Nc2cc(C)nc(NCCc3cccs3)n2)cc1

IC50 (NEDD8 activating enzyme): 32 µM
IC50 [9]: > 100 µM
IC50 [5]: 0.003 µM
SMILES: NS(=O)(=O)OC[C@@H]1C[C@@H](Nc2ncncc2C(=O)c2ccn(Cc3cccc(Br)c3)n2)C[C@@H]1O

IC50 [10]: 74 µM
SMILES: c1coc(-c2cc(CNc3ncnc4sc5cnccc5c34)no2)c1

IC50 [3]: 2.2 µM
SMILES: CCCCCCCCCCCCCCCc1cccc(O)c1C(=O)O [ANACARDIC ACID]

IC50 [3]: 3 µM
SMILES: CCCCCC/C=C\CCCCCCCc1cccc(O)c1C(=O)O [GINGKOLIC ACID]

Continued, compound first:

SMILES: Oc1ccccc1-c1ccccc1O
IC50 [1]: 5800 µM

SMILES: O=c1cc(-c2ccc(O)c(O)c2O)oc2ccccc12
IC50 [2]: 6 µM

SMILES: COC(=O)C1=C(C(=O)OC)[C@@]2([C@@H](Cc3ccc(C)cc3)Nc3ccccc3)C=C[C@@H]1O2
IC50 [4]: 0.2 µM

SMILES: O=C(O)CN(NC(=O)c1ccc(CNC(=O)c2cccc(C(=O)O)c2)cc1)C(=O)[C@H]1O[C@@H]1C(=O)C(Cc1cccc2ccccc12)Cc1cccc2ccccc12
IC50 [6]: 17.9 µM

SMILES: O=C(O)c1cccc(C(=O)NCc2ccc(C(=O)NNC(=O)[C@H]3O[C@@H]3C(=O)C(Cc3cccc4ccccc34)Cc3cccc4ccccc34)cc2)c1
IC50 [6]: 16.2 µM

SMILES: CC(C)[C@]12O[C@H]1[C@@H]1O[C@]13[C@]1(O[C@H]1C[C@H]1C4=C(CC[C@@]13C)C(=O)OC4)[C@@H]2O [TRIPTOLIDE]
IC50 (LNCaP): 0.0097 µM
IC50 (PC-3): 0.0203 µM
